In US20090061022A1, “Pharmaceutical composition comprising arsenite for the treatment of malignancy” (priority 2004, published 2009):
Values joined by “and” are separate entries in the source; they are usually repeats but may differ in a detail not shown here. Identical values can stand only once.

System: panel of 9 human cancer cell lines
Assay: Cytotoxic activity, whole panel of 9 human cancer cell lines (means, active/total)
Type: cell-based
Details: for Active/Total cancer cell lines / Active/Total cancer cell lines, percent: active = T/C<30
Method: Three kinds of stock solutions were prepared for in vitro cytotoxic activity test. The first solution is DMSO (dimethyl sulfoxide) mixed with sodium meta-arsenite. […] The third solution is DMSO mixed with arsenic acid sodium salt. Those three solutions were diluted with culture medium (RPMI 1640). The final concentrations of DMSO in those three solutions are less than 0.3 vol %.
Nine kinds of human cancer cell lines out of six kinds of cancers were grown at 37° C. under a controlled atmosphere of 95% air and 5% CO2. The cells were grown on monolayer cultures of RPMI 1640 cell culture medium supplemented with 10% fetal calf serum.
The grown cells were harvested from exponential phase cultures by trypsinization and counted. The counted cells were placed in a plate, which has ninety six wells. Each well on the plate is in a shape of a flat-bottomed microtitre. Density of the cells in a suspension was adjusted depending on the cell line. The suspension was prepared by diluting the grown cells with the culture medium (RPMI 1640). […] Then add 50 μl of culture medium (RPMI 1640) only to 6 wells, 50 μl/well, among the 96 wells of one plate. It is called controlled. One well is filled with culture medium plus 5-FU. And another 50 μl of culture medium plus one of the stock solutions were added to each of the left 89 wells to allow cells to resume exponential growth.
The cytotoxic activity test was executed with three plates simultaneously to check reliability of the data obtained. The three plates contain the same samples of cancer cells. The three plates were then incubated for 3-7 days under the same controlled atmosphere and cell proliferation was assessed with a modified propodium iodide fluorescence assay. After thawing of the plates, fluorescence was measured using a Millipore Cytofluor 2350-microplate reader (excitation 530 nm emission 620 nm) in order to quantify the total cell number. The assay included untreated and positive controls containing 5-FU.
Growth inhibition is defined as (numbers of cancer cell alive) treated (T)/(number of cells) control (C)×100% (T/C %).

[1] = mean over human cancer cell lines tested (9 line panel)

## O=[As][O-].[Na+] [Sodium meta-arsenite, sodium meta-arsenite]
1 μg/ml
  Active/Total cancer cell lines: 1/9
  Active/Total cancer cell lines, percent: 11%
3 μg/ml
  Active/Total cancer cell lines: 2/8
  Active/Total cancer cell lines, percent: 25%
10 μg/ml
  Active/Total cancer cell lines: 3/9
  Active/Total cancer cell lines, percent: 33%
30 μg/ml
  Active/Total cancer cell lines: 4/8
  Active/Total cancer cell lines, percent: 50%
100 μg/ml
  Active/Total cancer cell lines, percent: 89%
9 cell line panel
  Assessment from comparison of the IC50 values: most potent compound of the series
[1]
  IC50: 56 µM
  IC90: 490 µM
  Mean IC50: 7.3 µg/mL
  Mean IC70: 19.8 μg/ml and 152 μM
  Mean IC90: 63.7 µg/mL
